Results taken from the supplement of paper PMC10307832.

Columns and labels:
Test in all cases: relative viability (nuclei count vs DMSO), 5 days (fraction); higher = more cells survive
Seliciclib + Phenformin = compound: CC[C@H](CO)Nc1nc(NCc2ccccc2)c2ncn(C(C)C)c2n1 [Seliciclib] + N=C(N)NC(=N)NCCc1ccccc1 [Phenformin] (partner 250 µM)
Method in brief: (§1)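 Relative viability is defined as nuclei in treated wells over nuclei in vehicle wells. Duplicate plates were run and medians reported. Lung cancer cell lines in 1536-well plates were dosed by pin tool one day after seeding, with one drug or with a fixed anchor-drug dose plus five library-drug doses (not always all listed) in √10 steps, and nuclei were counted after 5 days.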

Seliciclib + Navitoclax = compound: CC[C@H](CO)Nc1nc(NCc2ccccc2)c2ncn(C(C)C)c2n1 [Seliciclib] + CC1(C)CCC(c2ccc(Cl)cc2)=C(CN2CCN(c3ccc(C(=O)NS(=O)(=O)c4ccc(N[C@H](CCN5CCOCC5)CSc5ccccc5)c(S(=O)(=O)C(F)(F)F)c4)cc3)CC2)C1 [Navitoclax] (partner 0.5 µM)
Method in brief: as §1

Seliciclib + Pemetrexed = compound: CC[C@H](CO)Nc1nc(NCc2ccccc2)c2ncn(C(C)C)c2n1 [Seliciclib] + Nc1nc2[nH]cc(CCc3ccc(C(=O)N[C@@H](CCC(=O)O)C(=O)O)cc3)c2c(=O)[nH]1 [Pemetrexed] (partner 0.2 µM)
Method in brief: as §1

Seliciclib + Trametinib = compound: CC[C@H](CO)Nc1nc(NCc2ccccc2)c2ncn(C(C)C)c2n1 [Seliciclib] + CC(=O)Nc1cccc(-n2c(=O)n(C3CC3)c(=O)c3c(Nc4ccc(I)cc4F)n(C)c(=O)c(C)c32)c1 [Trametinib] (partner 0.02 µM)
Method in brief: as §1

Cell Line | relative viability (Seliciclib + Phenformin; first compound 0.08 µM) | relative viability (Seliciclib + Phenformin; first compound 0.253 µM) | relative viability (Seliciclib + Phenformin; first compound 0.8 µM) | relative viability (Seliciclib + Phenformin; first compound 2.53 µM) | relative viability (Seliciclib + Phenformin; first compound 8 µM) | relative viability (Seliciclib + Navitoclax; first compound 0.08 µM) | relative viability (Seliciclib + Navitoclax; first compound 0.253 µM) | relative viability (Seliciclib + Navitoclax; first compound 0.8 µM) | relative viability (Seliciclib + Navitoclax; first compound 2.53 µM) | relative viability (Seliciclib + Navitoclax; first compound 8 µM) | relative viability (Seliciclib + Pemetrexed; first compound 0.08 µM) | relative viability (Seliciclib + Pemetrexed; first compound 0.253 µM) | relative viability (Seliciclib + Pemetrexed; first compound 0.8 µM) | relative viability (Seliciclib + Pemetrexed; first compound 2.53 µM) | relative viability (Seliciclib + Pemetrexed; first compound 8 µM) | relative viability (Seliciclib + Trametinib; first compound 0.08 µM) | relative viability (Seliciclib + Trametinib; first compound 0.253 µM) | relative viability (Seliciclib + Trametinib; first compound 0.8 µM) | relative viability (Seliciclib + Trametinib; first compound 2.53 µM) | relative viability (Seliciclib + Trametinib; first compound 8 µM)
HCC-78 | 0.706 | 0.795 | 0.65 | 0.536 | 0.474 | 0.73 | 0.969 | 0.738 | 0.703 | 0.557 | 0.852 | 0.89 | 0.914 | 0.958 | 0.88 | 0.737 | 0.94 | 0.746 | 0.83 | 0.513
NCI-H2405 | 0.362 | 0.399 | 0.319 | 0.324 | 0.355 | 0.666 | 0.71 | 0.754 | 0.717 | 0.631 | 1.05 | 1.23 | 1.07 | 0.825 | 0.83 | 0.631 | 0.44 | 0.664 | 0.509 | 0.591
SK-LU-1 | 0.532 | 0.582 | 0.647 | 0.435 | 0.413 | 0.866 | 0.973 | 0.575 | 0.978 | 0.627 | 0.992 | 1.08 | 1.04 | 0.952 | 0.597 | 0.548 | 0.426 | 0.54 | 0.601 | 0.415
EMC-BAC-2 | 0.505 | 0.515 | 0.524 | 0.436 | 0.479 | 1.13 | 1.11 | 1.1 | 1.27 | 1.09 | 0.417 | 0.476 | 0.547 | 0.468 | 0.508 | 0.883 | 0.934 | 0.809 | 0.721 | 0.778
NCI-H1650 | 0.436 | 0.525 | 0.462 | 0.424 | 0.264 | 1.12 | 1.01 | 1.07 | 1.21 | 1.08 | 0.429 | 0.346 | 0.36 | 0.427 | 0.399 | 0.572 | 0.69 | 0.471 | 0.433 | 0.422
NCI-H596 | 0.66 |  | 0.83 | 0.784 | 0.595 | 1 | 0.567 | 0.891 | 1.16 | 0.826 | 0.484 |  | 0.534 | 0.557 | 0.51 | 0.814 |  | 0.75 | 0.837 | 0.58
LCLC-97TM1 | 0.467 | 0.354 | 0.493 | 0.138 | 0.381 | 0.324 | 0.462 | 0.414 |  | 0.223 | 0.206 | 0.148 | 0.192 | 0.135 | 0.135 | 0.244 | 0.173 | 0.226 | 0.178 | 0.155
H3255 | 0.357 | 0.357 | 0.368 | 0.322 | 0.348 | 0.656 | 0.558 | 0.512 | 0.436 | 0.46 | 0.555 | 0.624 | 0.639 | 0.471 | 0.534 | 0.629 | 0.52 | 0.652 | 0.631 | 0.494
LXF-289 | 0.52 | 0.505 | 0.501 | 0.507 | 0.496 | 0.937 | 1.03 | 0.795 | 0.934 | 0.914 | 0.883 | 1.04 | 0.81 | 0.932 | 0.842 | 0.65 | 0.725 | 0.646 | 0.661 | 0.627
UMC-11 | 0.341 | 0.343 | 0.322 | 0.272 | 0.232 | 0.316 | 0.279 | 0.313 | 0.29 | 0.25 | 0.741 | 0.753 | 0.789 | 0.78 | 0.594 | 0.726 | 0.593 | 0.877 | 0.657 | 0.581
LC-2-ad | 0.552 | 0.579 | 0.593 | 0.368 | 0.514 | 0.419 | 0.505 | 0.379 | 0.494 | 0.271 | 0.264 | 0.25 | 0.285 | 0.279 | 0.248 | 0.9 | 0.976 | 0.867 | 0.907 | 0.79
NCI-H2170 | 0.393 | 0.489 | 0.354 | 0.436 | 0.411 | 0.671 | 0.338 | 0.596 | 0.667 | 0.523 | 0.269 |  | 0.262 | 0.268 | 0.26 | 0.85 |  | 0.884 | 0.927 | 0.888
A-427 | 0.325 | 0.354 | 0.307 | 0.276 | 0.295 | 1.01 | 0.95 | 0.809 | 0.946 | 0.95 | 1.01 | 1.01 | 1.03 | 0.963 | 0.917 | 0.767 | 0.816 | 0.797 | 0.678 | 0.586
NCI-H322M | 0.861 | 0.967 | 0.693 | 0.673 | 0.536 | 1.22 | 1.34 | 1.12 | 1.37 | 1.24 | 0.615 | 0.716 | 0.564 | 0.636 | 0.619 | 0.536 | 0.487 | 0.495 | 0.473 | 0.399
HCC-366 | 0.618 | 0.716 | 0.571 | 0.62 | 0.506 | 1.01 | 0.699 | 1.03 | 1.17 | 0.947 | 0.153 | 0.327 | 0.212 | 0.295 | 0.241 | 0.332 | 0.253 | 0.368 | 0.317 | 0.239
NCI-H1975 | 0.386 | 0.335 | 0.392 | 0.312 | 0.236 | 1 | 0.959 | 1.05 | 1.12 | 0.878 | 0.274 | 0.328 | 0.281 | 0.331 | 0.267 | 0.383 | 0.215 | 0.439 | 0.266 | 0.334
NCI-H1437 | 0.347 | 0.353 | 0.291 | 0.241 | 0.262 | 1.01 | 1.11 | 1.07 | 1.15 | 0.885 | 0.32 | 0.358 | 0.333 | 0.315 | 0.306 | 0.5 | 0.551 | 0.562 | 0.398 | 0.401
NCI-H2009 | 0.487 | 0.599 | 0.498 | 0.474 | 0.493 | 1.14 | 1.17 | 1.13 | 1.2 | 1.08 | 1.08 | 1.17 | 1.03 | 0.981 | 1.02 | 0.278 | 0.208 | 0.264 | 0.262 | 0.296
NCI-H1651 | 0.339 | 0.366 | 0.317 | 0.277 | 0.249 | 0.947 | 0.965 | 0.863 | 1.14 | 0.887 | 0.518 | 0.591 | 0.61 | 0.388 | 0.561 | 0.732 | 0.783 | 0.796 | 0.793 | 0.796
NCI-H1666 | 0.59 | 0.589 | 0.556 | 0.549 | 0.516 | 0.951 | 1.05 | 0.909 | 1.06 | 0.512 | 0.918 | 0.959 | 0.824 | 0.821 | 0.815 | 0.829 | 0.761 | 0.792 | 0.849 | 0.75
NCI-H1734 | 0.385 | 0.35 | 0.311 | 0.334 | 0.356 | 0.847 | 0.733 | 0.834 | 0.879 | 0.808 | 0.417 | 0.35 | 0.432 | 0.448 | 0.416 | 0.717 | 0.528 | 0.677 | 0.664 | 0.572
EPLC-272H | 0.329 | 0.335 | 0.295 | 0.219 | 0.333 | 1.24 | 0.987 | 1.12 | 1.28 | 1.12 | 0.326 | 0.357 | 0.274 | 0.329 | 0.229 | 0.298 | 0.269 | 0.309 | 0.258 | 0.244
NCI-H2023 | 0.41 | 0.417 | 0.411 | 0.468 | 0.312 | 0.895 | 0.853 | 0.967 | 0.949 | 0.891 | 0.261 | 0.276 | 0.229 | 0.181 | 0.222 | 0.542 | 0.457 | 0.501 | 0.447 | 0.264
BEN | 0.268 | 0.249 | 0.125 | 0.284 | 0.227 | 0.0594 |  | 0.0808 | 0.213 | 0.0793 | 0.805 | 0.676 | 0.67 | 0.611 | 0.63 | 0.976 | 0.809 | 1.1 | 0.991 | 1.04
COR-L 105 | 0.466 | 0.565 | 0.549 | 0.389 | 0.481 | 0.86 | 0.624 | 0.597 | 0.763 | 0.684 | 0.98 | 1.09 | 1.21 | 1.09 | 1.01 | 0.469 | 0.36 | 0.427 | 0.451 | 0.401
HCC-15 | 0.491 | 0.519 | 0.419 | 0.383 | 0.352 | 0.719 | 0.77 | 0.677 | 0.718 | 0.491 | 0.221 | 0.223 | 0.219 | 0.218 | 0.226 | 0.393 | 0.343 | 0.369 | 0.37 | 0.357
NCI-H1793 | 0.378 | 0.307 | 0.378 | 0.32 | 0.227 | 0.432 | 0.335 | 0.326 | 0.511 | 0.313 | 0.842 | 0.741 | 0.77 | 0.857 | 0.912 | 0.364 | 0.433 | 0.461 | 0.411 | 0.291
